Reference: patent US8445532B2, “Use of phthalide derivatives” (priority 2005, dated 2013)
Converted amounts (≈) assume the structure as drawn. Like-named read-outs stand apart in the source and are kept apart here.

What was measured:
Assay type in all cases: cell-based, human
[1] = system: MCF-7; assay: MTT drug resistance determination to conventional chemotherapeutic drugs; settings: 68 h
Text: (§1) The following cell lines were used: K562 (human chronic myeloid leukemia cell line) and K562/Adr (a cell line with drug-resistance to chemotherapeutic drugs such as Adriamycin induced by a long-term exposure to a low dosage of Adriamycin); KB (human oral epithelia cell line) and KBv200 (a cell line with drug-resistance to chemotherapeutic drugs such as Vincristine induced by a long-term exposure to a low dosage of Vincristine); MCF-7 (human mammary cancer cell line) and MCF-7/Adr (a cell line with drug-resistance to chemotherapeutic drugs such as Adriamycin induced by a long-term exposure to a low dosage of Adriamycin). All the cell lines mentioned above were purchased from Institute of Hematology, Chinese Academy of Medical Sciences.
(§2) Half-inhibitory concentration (IC50) was calculated by the GraphPad Prism software (San Diego, Calif.). Drug reaction was analyzed by Sigmoldal non-linear regression model.
(§3) The cells at logarithmic phase were collected and added into RPMI 1640 medium (containing 10% fetal bovine serum) to prepare a cell suspension. Then the cell suspension was plated onto a 96-well plate at 100 μl per well (1×10^4 cell/well). Adriamycin, Vincristine, Taxol, cisplatin of different concentration gradients were directly added to the semi-suspending cells (K562 and K562/Adr). The adherent cells were cultured for 24 hours after inoculation so that they could adhere completely, and then the drugs mentioned above in different concentrations were added. There were six parallel repeated wells for every concentration gradient. The medium was added up to a final volume of 200 μl per well. The cells were cultured at the condition of 37° C., saturated humidity, 5% CO2 for 68 hours. 50 μl MTT (2 mg/mL) per well was added. The 96-well plate was centrifuged and the supernatant was removed. Then 120 μl DMSO per well was added and vibrated by vibrator. The OD value was determined at a wavelength of 590 nm by enzyme labeling instrument after the crystal was dissolved completely.
(§4) The calculating method: IC50=drug concentration when the inhibitory rate was 50%.
(§5) Drug resistant factor (RF)=the IC50 of the drug resistant cells/the IC50 of the sensitive cells.

[2] = system: KB; assay: as above; settings: drug alone, 68 h
Text: as §1, §2, §3, §4, §5

[3] = system: K562; assay: as above; settings: K562, drug alone, 68 h
Text: as §1, §2, §3, §4, §5

[4] = system: K562/Adr cells; assay: Sensitizing effect of PA to conventional chemotherapeutic drugs (MTT); settings: drug alone, 68 h; for IC50: Homo sapiens, read-out: IC50 of anti-tumor drug, Ctrl (without PA)
Protocol: (§6) The cells at logarithmic phase were collected and added into RPMI 1640 medium (containing 10% fetal bovine serum) to make cell suspensions. The cell suspension was added to 96-well plate at 100 μl per well, and the cell number was 2×10^3 (suspending cells) or 1×10^3 (adherent cells) per well. After inoculation, the suspending cells were adapted for half an hour on the plate and the adherent cells were cultivated to allow adhesion before the drugs were added. The control groups (Ctrl) were added with anti-tumor drugs but without PA. The drug concentration of each PA group was 10 μg/mL. The concentrations of chemotherapeutic drugs increased from 0.001 μg/mL to 20 μg/mL. There Were six parallel repeated wells for every concentration gradient. RPMI 1640 was added up to a finally volume of 200 μl per well. The cells were cultured at the condition of 37° C., saturated humidity, 5% CO2 for 68 hours. The MTT was determined and the IC50 was calculated as in example 4.
(§7) The formula of resistant factor: Resistant Factor (RF)=the IC50 without sensitizer/the IC50 with sensitizer.

[5] = system: MCF-7/Adr cells; assay: as above; settings: drug alone, 68 h; for IC50: Homo sapiens, NCI/ADR-RES, read-out: IC50 of anti-tumor drug, Ctrl (without PA)
Protocol: as §6, §7

[6] = system: KBv200 cells; assay: as above; settings: KBv200, drug alone, 68 h; for IC50: Homo sapiens, read-out: IC50 of anti-tumor drug, Ctrl (without PA)
Protocol: as §6, §7

[7] = system: K562/Adr; assay: MTT drug resistance determination to conventional chemotherapeutic drugs; settings: for IC50: K562/Adr, drug alone, 68 h, MTT; for RF (drug resistant factor): IC50 K562/Adr / IC50 K562
Text: as §1
The multi-drug resistant cell line of K562/Adr is mainly characterized by the concurrency of multiple resistant mechanisms including the increased expression of P-gp and Bcl-2 family proteins, and the enhanced activity of glyoxalase I, etc. K562/Adr is resistant to Adriamycin 20 folds more than K562, and cross-resistant to Vincristine, Daunomycin, Mitoxantrone, Taxol, etc.
as §2, §3, §4, §5

[8] = system: KBv200; assay: as above; settings: for IC50: KBv200, drug alone, 68 h, MTT; for RF (drug resistant factor): IC50 KBv200 / IC50 KB
Text: as §1
The multi-drug resistant cell line, of KBv200 is also mainly characterized by the concurrency of multiple resistant mechanisms including the increased expression of P-gp and Bcl-2 family proteins, and the enhanced activity of glyoxalase I, etc. KBv200 is resistant to Vincristine more than 100 folds in comparison with KB, and cross-resistant to […], Daunomycin, Mitoxantrone, Taxol, etc.
as §2, §3, §4, §5

[9] = system: MCF-7/Adr; assay: as above; settings: for IC50: MCF-7/Adr, drug alone, 68 h, MTT; for RF (drug resistant factor): IC50 MCF-7/Adr / IC50 MCF-7
Text: as §1
Similarly, the multi-drug resistant cell line of MCF-7/Adr is also mainly characterized by the concurrency of multiple resistant mechanisms including the increased expression of P-gp and Bcl-2 family proteins, and the enhanced activity of glyoxalase I, etc.
as §2, §3, §4, §5

[10] = Homo sapiens, MCF7, MCF-7, drug alone, read-out: IC50
[11] = Homo sapiens, NCI/ADR-RES, read-out: IC50

Structure (SMILES)	IC50 [1, 10] [µg/mL]	IC50 ([2]; Homo sapiens, read-out: IC50) [µg/mL]	IC50 ([3]; Homo sapiens, read-out: IC50) [µg/mL]	IC50 [4] [µg/mL]	IC50 [5] [µg/mL]	IC50 [6] [µg/mL]	IC50 ([7]; Homo sapiens, read-out: IC50) [µg/mL]	RF (drug resistant factor) [7]	IC50 ([8]; Homo sapiens, read-out: IC50) [µg/mL]	RF (drug resistant factor) [8]	IC50 [9, 11] [µg/mL]	RF (drug resistant factor) [9]	also measured
COc1cccc2c1C(=O)c1c(O)c3c(c(O)c1C2=O)C[C@@](O)(C(=O)CO)C[C@@H]3O[C@H]1C[C@H](N)[C@H](O)[C@H](C)O1 [Adr, doxorubicin]	0.312 ± 0.143 (≈ 0.574 µM)	0.49 ± 0.176 (≈ 0.902 µM)	0.215 ± 0.152 (≈ 0.396 µM)	7.67 ± 0.16	6.32 ± 0.775	4.39 ± 0.336	14.1 ± 0.35 (≈ 25.9 µM)	65.39	16.3 ± 1.03 (≈ 30 µM)	33.22	19 ± 0.67 (≈ 34.9 µM)	59.07	Resistance of K562/Adr relative to K562 ([7]; description of cell line): 20 folds
N.N.[Cl][Pt][Cl] [DDP, Cisplatin]	–	–	–	–	–	–	–	4.727	–	14.13	–	11.38	IC50 ([1]; MCF-7, drug alone): 0.6453 ± 0.1675 µg/mL; IC50 [2]: 0.5509 ± 0.094 µg/mL; IC50 [3]: 0.2274 ± 0.078 µg/mL; IC50 of anti-tumor drug, Ctrl (without PA) ([4]; in µg/mL): 5.311 ± 0.4429; IC50 of anti-tumor drug, Ctrl (without PA) ([5]; in µg/mL): 7.708 ± 1.077; IC50 of anti-tumor drug, Ctrl (without PA) ([6]; in µg/mL): 5.868 ± 0.2438; IC50 [7]: 1.075 ± 0.5646 µg/mL; IC50 [8]: 7.785 ± 0.6536 µg/mL; IC50 [9]: 7.342 ± 0.764 µg/mL
CC(=O)O[C@H]1C(=O)[C@@]2(C)[C@H]([C@H](OC(=O)c3ccccc3)[C@]3(O)C[C@H](OC(=O)[C@H](O)[C@@H](NC(=O)c4ccccc4)c4ccccc4)C(C)=C1C3(C)C)[C@]1(OC(C)=O)CO[C@@H]1C[C@@H]2O [Taxol, paclitaxel]	0.0415 ± 0.003 (≈ 0.0486 µM)	0.032 ± 0.001 (≈ 0.0375 µM)	0.0247 ± 0.001 (≈ 0.0289 µM)	0.8225 ± 0.0073	0.906 ± 0.213	1.01 ± 0.0421	0.932 ± 0.092 (≈ 1.09 µM)	37.72	1.348 ± 0.002 (≈ 1.58 µM)	42.12	0.743 ± 0.21 (≈ 0.87 µM)	17.65	–
CC[C@]1(O)C[C@H]2CN(CCc3c([nH]c4ccccc34)[C@@](C(=O)OC)(c3cc4c(cc3OC)N(C=O)[C@H]3[C@@](O)(C(=O)OC)[C@H](OC(C)=O)[C@]5(CC)C=CCN6CC[C@]43[C@@H]65)C2)C1 [VCR, Vincristine]	0.096 ± 0.014 (≈ 0.116 µM)	0.153 ± 0.092 (≈ 0.185 µM)	0.218 ± 0.011 (≈ 0.264 µM)	12.1 ± 0.349	14.1 ± 1.95	10.7 ± 0.992	12.2 ± 0.576 (≈ 14.7 µM)	55.73	21.3 ± 1.21 (≈ 25.9 µM)	139.5	18.6 ± 1.75 (≈ 22.5 µM)	193.75	–
